Experimental data published in the supplement of paper PMC8960247.
Counter-ions that a name gives are not always drawn. ± gives the standard error.
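Note: immortalized renal angiomyolipoma cells stably carrying empty vector or TSC2, dosed in 384-well plates in DMEM, viability normalized to vehicle-treated wells within each plate.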

These compounds were tested on 621-103 (TSC2-rescued) (assay: relative viability vs DMSO; higher = less cytotoxic). Settings: 0.001 µM; serum: 10% FBS; 72 h.
`O=C(O[C@H]1C[C@H]2CC[C@@H](C1)[N+]21CCCC1)C(O)(c1ccccc1)c1ccccc1` [Trospium chloride (Sanctura)] gave a relative viability of 91.5 ± 2.9%.
`CN1CCc2c(c3ccccc3n2Cc2ccc(C(=O)NO)cc2)C1` [Tubastatin A HCl] was tested, and the relative viability was 102 ± 2.5%.
In the case of `N#CC(=C(/N)Sc1ccccc1N)/C(C#N)=C(\N)Sc1ccccc1N` [U0126-EtOH], the relative viability is reported as 101 ± 1.1%.
`NC(=O)c1cccc(-c2cccc(OC(=O)NC3CCCCC3)c2)c1` [URB597] was tested, and the relative viability was 106 ± 3.3%.
In the case of `CC(C)(C)C#Cc1cc(N(C(=O)[C@H]2CC[C@H](C)CC2)[C@H]2CC[C@H](O)CC2)c(C(=O)O)s1` [VX-222], the relative viability is reported as 102.7 ± 0.81%.
With `NC(=O)c1ccc(N(C(N)=O)c2c(F)cccc2F)nc1-c1ccc(F)cc1F` [VX-702] the relative viability was 99.8 ± 1.8%.
In the case of `O=c1ncn2nc(Sc3ccc(F)cc3F)ccc2c1-c1c(Cl)cccc1Cl` [VX-745], the relative viability is reported as 101 ± 1.2%.
In the case of `CCO[C@@H]1OC(=O)C[C@@H]1NC(=O)[C@@H]1CCCN1C(=O)[C@@H](NC(=O)c1ccc(N)c(Cl)c1)C(C)(C)C` [VX-765], the relative viability is reported as 95.9 ± 4.8%.
Compound `CC(C)(C)c1cc(C(C)(C)C)c(NC(=O)c2c[nH]c3ccccc3c2=O)cc1O` [VX-770] has a relative viability of 117 ± 6.1%.
`CCCCC(=O)N(Cc1ccc(-c2ccccc2-c2nnn[nH]2)cc1)[C@H](C(=O)O)C(C)C` [Valsartan] was tested, and the relative viability was 118.1 ± 0.48%.
`COc1cc2/c(=N/c3ccc(Br)cc3F)nc[nH]c2cc1OCC1CCN(C)CC1` [Vandetanib] gave a relative viability of 99.63 ± 0.8%.
Compound `CCCc1nc(C)c2c(=O)nc(-c3cc(S(=O)(=O)N4CCN(CC)CC4)ccc3OCC)[nH]n12` [Vardenafil (Vivanza)] has a relative viability of 103.3 ± 0.7%.
`Clc1ccc(Nc2nnc(Cc3ccncc3)c3ccccc23)cc1` [Vatalanib] gave a relative viability of 106 ± 2%.
`COc1ccc(C(CN(C)C)C2(O)CCCCC2)cc1` (configuration not stated) [Venlafaxine HCl] gave a relative viability of 109.5 ± 0.37%.

Same assay, conditions: 0.01 µM; serum: 10% FBS; 72 h
Work on `COc1cc2c(N3CCN(C(=O)Nc4ccc(OC(C)C)cc4)CC3)ncnc2cc1OCCCN1CCCCC1` [Tandutinib (MLN518)] yielded a relative viability of 101 ± 2.1%.
Work on `CNC(=O)c1cc(COc2nnc(Nc3ccc(Cl)cc3)c3ccoc23)ccn1` [Telatinib (BAY57-9352)] yielded a relative viability of 100 ± 2.4%.
`CCCc1nc2c(C)cc(-c3nc4ccccc4n3C)cc2n1Cc1ccc(-c2ccccc2C(=O)O)cc1` [Telmisartan] was tested, and the relative viability was 95.37 ± 0.79%.
`C[C@H](Cn1cnc2c(N)ncnc21)OCP(=O)(O)O` [Tenofovir] showed a relative viability of 103 ± 5.3%.
`CN(C/C=C/C#CC(C)(C)C)Cc1cccc2ccccc12` [Terbinafine HCl] gave a relative viability of 104 ± 2.1%.
`CCC(=O)O[C@H]1CC[C@H]2[C@@H]3CCC4=CC(=O)CC[C@]4(C)[C@H]3CC[C@]12C` [Testosterone propionate (Agovirin)] showed a relative viability of 104 ± 1.2%.
Compound `CCCCNc1ccc(C(=O)OCCN(C)C)cc1` [Tetracaine HCl] has a relative viability of 90.6 ± 5.6%.
In the case of `C[N+]1(C)[C@@H]2C[C@@H](OC(=O)C(O)(c3cccs3)c3cccs3)C[C@H]1[C@@H]1O[C@@H]12` [Tiotropium Bromide hydrate], the relative viability is reported as 105.9 ± 0.43%.
`C[N+]1(C)[C@@H]2C[C@@H](OC(=O)C(O)(c3cccs3)c3cccs3)C[C@H]1[C@@H]1O[C@@H]12` [Tiotropium] showed a relative viability of 103.3 ± 0.58%.
In the case of `O=c1oc2cc(O)ccc2s1` [Tioxolone], the relative viability is reported as 75.42 ± 0.21%.
For `O=c1n(CCCN2CCN(c3cccc(Cl)c3)CC2)nc2ccccn12` [Trazodone HCl], the relative viability was 84.8 ± 4%.
`CC(/C=C/C(=O)NO)=C\[C@@H](C)C(=O)c1ccc(N(C)C)cc1` [Trichostatin A] was tested, and the relative viability was 98.31 ± 0.47%.
`C[C@]12CC[C@H]3[C@@H](CC[C@@]45O[C@@H]4C(O)=C(C#N)C[C@]35C)[C@@H]1CC[C@@H]2O` [Trilostane] gave a relative viability of 106.2 ± 0.28%.
In the case of `CN1[C@@H]2CC[C@H]1C[C@@H](OC(=O)c1c[nH]c3ccccc13)C2` [Tropisetron HCl], the relative viability is reported as 102 ± 2.4%.
For `O=C(O[C@H]1C[C@H]2CC[C@@H](C1)[N+]21CCCC1)C(O)(c1ccccc1)c1ccccc1` [Trospium chloride (Sanctura)], the relative viability was 93.15 ± 0.86%.
`CN1CCc2c(c3ccccc3n2Cc2ccc(C(=O)NO)cc2)C1` [Tubastatin A HCl] gave a relative viability of 101 ± 3.4%.
In the case of `N#CC(=C(/N)Sc1ccccc1N)/C(C#N)=C(\N)Sc1ccccc1N` [U0126-EtOH], the relative viability is reported as 99.9 ± 1.5%.
For `NC(=O)c1cccc(-c2cccc(OC(=O)NC3CCCCC3)c2)c1` [URB597], the relative viability was 103 ± 1.4%.
With `CC(C)(C)C#Cc1cc(N(C(=O)[C@H]2CC[C@H](C)CC2)[C@H]2CC[C@H](O)CC2)c(C(=O)O)s1` [VX-222] the relative viability was 100 ± 1.2%.
`NC(=O)c1ccc(N(C(N)=O)c2c(F)cccc2F)nc1-c1ccc(F)cc1F` [VX-702] showed a relative viability of 99.92 ± 0.12%.
`O=c1ncn2nc(Sc3ccc(F)cc3F)ccc2c1-c1c(Cl)cccc1Cl` [VX-745] gave a relative viability of 99.4 ± 1.5%.
Compound `CCO[C@@H]1OC(=O)C[C@@H]1NC(=O)[C@@H]1CCCN1C(=O)[C@@H](NC(=O)c1ccc(N)c(Cl)c1)C(C)(C)C` [VX-765] has a relative viability of 101 ± 4.6%.
For `CC(C)(C)c1cc(C(C)(C)C)c(NC(=O)c2c[nH]c3ccccc3c2=O)cc1O` [VX-770], the relative viability was 114 ± 4.1%.
In the case of `CCCCC(=O)N(Cc1ccc(-c2ccccc2-c2nnn[nH]2)cc1)[C@H](C(=O)O)C(C)C` [Valsartan], the relative viability is reported as 115 ± 1.9%.
`COc1cc2/c(=N/c3ccc(Br)cc3F)nc[nH]c2cc1OCC1CCN(C)CC1` [Vandetanib] showed a relative viability of 98.84 ± 0.35%.
For `CCCc1nc(C)c2c(=O)nc(-c3cc(S(=O)(=O)N4CCN(CC)CC4)ccc3OCC)[nH]n12` [Vardenafil (Vivanza)], the relative viability was 105 ± 1.5%.
For `Clc1ccc(Nc2nnc(Cc3ccncc3)c3ccccc23)cc1` [Vatalanib], the relative viability was 106 ± 2.4%.
For `COc1ccc(C(CN(C)C)C2(O)CCCCC2)cc1` (configuration not stated) [Venlafaxine HCl], the relative viability was 101 ± 4.2%.
